Data as given in US20090162855A1, “Identification of Genetic Variants Associated with Increased Severity of Pulmonary Disease” (CASE WESTERN RESERVE UNIVERSITY, priority 2007, published 2009).
Square brackets hold non-standard residues; d marks the D form. Peptide text beside a SMILES is read from it.

Columns and labels:
[1] = test system: EDNRA mRNA; experiment: Quantitative RT-PCR of EDNRA mRNA in smooth muscle cell lines treated with estrogen; type: cell-based, human; details: 9 smooth muscle cell lines (5 female, 4 male), estrogen 24 hours, vs unstimulated cells, 18S rRNA internal control
Procedure: Effects of these variants on EDNRA mRNA levels were examined. Primary airway smooth muscle cells from 10 non-CF individuals were harvested for DNA and RNA. Airway smooth muscle cells were cultured from tracheas obtained from autopsy. Cells were isolated from human trachealis muscle by digesting with collagenase and elastase in the presence of soybean trypsin inhibitor at 37° C. as previously described. The cells were harvested by centrifugation after filtering through Nytex and grown in Dulbecco's modified eagle's medium (DMEM/F12 1:1) containing 10% fetal bovine serum, 100 U/ml penicillin and 100 μg/ml streptomycin at 37° C. in a humidified atmosphere with 5% CO2 and 95% air. DNA samples were genotyped for rs1801708 and rs5335 and EDNRA mRNA quantified from total RNA by real time RT-PCR. EDNRA mRNA was quantified relative to 18s rRNA in 10 airway smooth muscle cell lines and compared by genotype. RNA was isolated from airway smooth muscle cells using the Qiagen RNeasy kit. […] A Ct was established for each sample and compared to standard curves to determine mRNA quantity. […] Values are expressed as a ratio of EDNRA: 18s copies. […]
Nine smooth muscle cell lines were exposed to estrogen and mRNA levels compared to unstimulated cells. […] Quantitative RT-PCR was carried out to determine copy number using 18S rRNA as an internal control. […]

[2] = test system: tracheal smooth muscle cells; experiment: Mitogenic index by BrdU incorporation in primary cultures of tracheal smooth muscle cells; type: cell-based, human; details: for proliferation (BrdU incorporation), treated vs untreated: cultures from 9 individuals, estrogen 72 hrs
Excerpt: (§1) A cellular phenotype that could potentially explain the genotype-phenotype association is a difference in smooth muscle proliferation. To be able to assess this in vitro, we have carried out studies examining the mitogenic effects of the receptor agonist, endothelin, on cultured smooth muscle cells, as well as those of estrogen and Transforming Growth Factor Beta 1 (TGFβ1). In these studies, TGFβ1 is used as a control mitogen in that it exerts its effect on proliferation independent of the endothelin receptor. […] Primary cultures of tracheal smooth muscle cells from 4 individuals were treated with TGFβ1, estrogen, endothelin, or estrogen and endothelin (Estr/Endo) for 72 hrs, and assayed for mitogenic index by BrdU incorporation (FIG. 8A) or for cell number (FIG. 8B). Values shown are ratios of treated to untreated (control) cells grown simultaneously. Each cell line and condition was carried out in triplicate. […] An EDNRA antagonist, BQ123 (Sigma), was included at 1 μM to determine if EDNRA-mediated effects could be blocked.
A larger group of cell lines stratified by genotype was examined. Primary cultures of tracheal smooth muscle cells from 9 individuals were treated with estrogen for 72 hrs, assayed for BrdU incorporation and compared to control cultures (no estrogen). FIG. 9 provides the ratio of treated to untreated cells. […] Treatment with estrogen appears to result in increased proliferation, but the effect is genotype dependent. This is in contrast to other reports of vascular smooth muscle in which estrogen inhibits proliferation.

[3] = test system: tracheal smooth muscle cells; type: cell-based, human; details: cultures from 4 individuals, 72 hrs
Excerpt: as §1

[4] = test system: smooth muscle cells; experiment: Intracellular calcium mobilization from sarcoplasmic reticulum measured using Fura-2; type: cell-based; details: 24 hrs in endothelin, washout
Procedure: FIG. 12 is a graph showing the response of cultures of smooth muscle cells to endothelin-1 (ET-1) acutely (control) and sarcoplasmic reticulum release of calcium measured by Fura-2 fluorescence ratios.
Smooth muscle cells of various EDNRA genotype combinations were examined for changes in intracellular calcium in response to endothelin. The effects of chronic exposure were assessed by incubating the cells for 24 hrs in endothelin, followed by a brief washout (30 minutes) and then re-exposure to endothelin and measurement of calcium release. […] For these assays, intracellular calcium mobilization from sarcoplasmic reticulum was measured using Fura-2. No significant differences were observed between subjects with regards to magnitude or duration of response from acute stimulation (FIG. 12, control). However, if cultured for 24 hrs in the presence of endothelin, washed out just before reexposure, there is a significant difference between subjects in the magnitude of response (FIG. 12, ET-1 conditioned).

[5] = test system: human ASM cells; experiment: Actin stress fiber formation (TRITC-phalloidin) in cultured ASM cells; type: cell-based; details: cultured in presence of ET-1 for 24 hours; preliminary data
Excerpt: FIG. 11 is a pair of micrographs of cultured ASM cells placed in either serum free media (A) or media containing ET-1 (B) for 24 hr; and
EDNRA is expressed on airway and vascular smooth muscle. Using indirect immunocytochemical staining of human ASM cells from the trachealis muscle retrieved from necroscopy tissue of 53 individuals, we have determined these cells consistently display EDNRA on the cell membrane (FIG. 10—staining is predominantly along cell membranes). […] This implies a functional receptor with ligand binding and intact intracellular signaling pathways.

estrogen
increase of EDNRA mRNA levels in response to hormone treatment [1]: approximately 5 fold | proliferation (BrdU incorporation), treated vs untreated ([2]; cells with "protective" GG genotype): no effect | proliferation (BrdU incorporation), treated vs untreated ([2]; cells with "severe" AA genotype): increase proliferation

Transforming Growth Factor Beta 1 [TGFβ1]
cell number, ratio of treated to untreated cells [3]: did not significantly alter cell number | mitogenic index (BrdU incorporation), ratio of treated to untreated cells ([2]; cultures from 4 individuals, 72 hrs): tripled

CC(C)C[C@@H]1NC(=O)[C@@H](C(C)C)NC(=O)[C@@H]2CCCN2C(=O)[C@@H](CC(=O)O)NC(=O)[C@@H](Cc2c[nH]c3ccccc23)NC1=O [BQ123] (cyclo(L[dW][dD]P[dV]))
mitogenic index of cells with EDNRA antagonist included ([2]; BQ123 at 1 μM): reduced the mitogenic index

CC[C@H](C)[C@H](NC(=O)[C@H](CC(=O)O)NC(=O)[C@H](CC(C)C)NC(=O)[C@H](Cc1c[nH]cn1)NC(=O)[C@@H]1CSSC[C@H](N)C(=O)N[C@@H](CO)C(=O)N[C@H]2CSSC[C@H](NC(=O)[C@H](CCC(=O)O)NC(=O)[C@H](CCCCN)NC(=O)[C@H](CC(=O)O)NC(=O)[C@H](CCSC)NC(=O)[C@H](CC(C)C)NC(=O)[C@H](CO)NC(=O)[C@H](CO)NC2=O)C(=O)N[C@@H](C(C)C)C(=O)N[C@@H](Cc2ccc(O)cc2)C(=O)N[C@@H](Cc2ccccc2)C(=O)N1)C(=O)N[C@H](C(=O)N[C@@H](Cc1c[nH]c2ccccc12)C(=O)O)[C@@H](C)CC [endothelin-1]
calcium release activity lost on re-exposure ([4]; cells with "adverse" genotypes): 10-15% | calcium release activity on re-exposure, of pre-exposure activity ([4]; cells with "protective" genotype of 3′ markers): 15% | formation of actin stress fibers [5]: increases the formation of actin stress fibers
